These results are taken from patent US20050287600A1, “Method for screening for agents preventing aggregation of potentially amyloidogenic proteins” (priority 2002, published 2005).

The target in the assay is T1, human ataxin-3 (Q36) (Homo sapiens, UniProt P54252, INS305QQQQQQQQQQQQQQQQQQQQQQQQQQ).
T1 construct: glutathione S-transferase (GST), PreScission Protease site (N, cleaved yes); made in house; host or cells: Escherichia coli BL21 codon plus RIL (plasmid pGEX6P-1)
Nature of the assay: Heat-induced amyloid fibre formation / aggregation screening assay. It counts as biochemical. To be noted: 10 microM Congo red; ataxin-3 (Q36) about 0.1 mg/ml in 10 mM sodium phosphate, pH 7.0, incubated at growing temperatures. How it is done:
The screening procedure encompasses a) mixing the protein of interest with the compound to be assayed for its ability to prevent aggregation b) gradually increasing the temperature c) detecting the appearance of amyloid fibres by turbidimetric measurements, and/or by visual inspection of the mixture, and/or by determining its protein content before and after spinning down the aggregated protein. In the control sample, no compound is added so heating results in amyloid fibre formation and ensuing protein precipitation and clouding of the solution. In contrast, a compound capable of preventing aggregation also prevents or reduces clouding, along with protein precipitation on centrifugation. Protein concentration is typically about 0.1 mg per ml. Human ataxin-3 (Q36) was dissolved in 10 mM sodium phosphate, pH 7.0 at a final concentration of about 0.1 mg/ml and incubated at growing temperatures. […] Congo red is a well-known antiamyloidogenic compound. On incubating human ataxin-3 (Q36) in the presence of 10 microM Congo red and otherwise under the conditions depicted in example 3, protein aggregation phenomena observed in the absence of the dye were prevented.

T1 sequence (P54252 with tags, fused parts or gaps with the stated changes): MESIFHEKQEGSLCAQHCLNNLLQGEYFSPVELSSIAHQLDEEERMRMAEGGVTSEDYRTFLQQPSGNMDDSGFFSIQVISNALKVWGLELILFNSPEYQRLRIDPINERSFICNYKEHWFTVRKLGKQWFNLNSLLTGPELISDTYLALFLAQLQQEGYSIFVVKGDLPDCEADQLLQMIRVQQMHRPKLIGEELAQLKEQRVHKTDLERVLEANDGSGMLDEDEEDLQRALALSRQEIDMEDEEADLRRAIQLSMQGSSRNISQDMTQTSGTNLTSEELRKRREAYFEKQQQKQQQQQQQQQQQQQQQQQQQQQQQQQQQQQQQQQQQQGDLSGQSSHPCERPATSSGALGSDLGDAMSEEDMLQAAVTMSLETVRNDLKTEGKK

Consider `Nc1c(/N=N/c2ccc(-c3ccc(/N=N/c4cc(S(=O)(=O)O)c5ccccc5c4N)cc3)cc2)cc(S(=O)(=O)O)c2ccccc12` [Congo red], for which the “protein aggregation (amyloid fibre formation) on heating” value was “prevented”.
